Assay results as given in US8952024B2, “Herbicidal pyrimidone derivatives” (E I du Pont de Nemours and Company, priority 2009, dated 2015).

Legend:
Type in all cases: in vivo
[1] = tested on: rice (Oryza sativa); assay: Test B flooded paddy test; conditions: for Plant response rating, Flood, Rice: 250 g ai/ha, flooded paddy test, visual rating on 0 to 100 scale (0 no effect, 100 complete control) after 13 to 15 days; for Plant response rating, Rice: Flood (flooded paddy test), 13 to 15 days
Outline: (§1)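 Greenhouse-held for 13 to 15 days, treated pots were compared visually with controls and scored 0–100 (0, no effect). Treatment had been made into paddy water kept at 3 cm above the soil, with plants at the 2-leaf stage.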

[2] = tested on: barnyardgrass (Echinochloa crus-galli); assay: Test B flooded paddy test; conditions: for Plant response rating, Flood, Barnyardgrass: 250 g ai/ha, flooded paddy test, visual rating on 0 to 100 scale (0 no effect, 100 complete control) after 13 to 15 days; for Plant response rating, Barnyardgrass: Flood (flooded paddy test), 13 to 15 days
Outline: as §1

[3] = tested on: ducksalad (Heteranthera limosa); assay: Test B flooded paddy test; conditions: for Plant response rating, Flood, Ducksalad: 250 g ai/ha, flooded paddy test, visual rating on 0 to 100 scale (0 no effect, 100 complete control) after 13 to 15 days; for Plant response rating, Ducksalad: Flood (flooded paddy test), 13 to 15 days
Outline: as §1

[4] = tested on: umbrella sedge (Cyperus difformis); assay: Test B flooded paddy test; conditions: for Plant response rating, Flood, Sedge, Umbrella: 250 g ai/ha, flooded paddy test, visual rating on 0 to 100 scale (0 no effect, 100 complete control) after 13 to 15 days; for Plant response rating, Sedge, Umbrella: Flood (flooded paddy test), 13 to 15 days
Outline: as §1

[5] = tested on: windgrass (Apera spica-venti); assay: Test B postemergence plant response
Outline: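 Plants at the 1- to 4-leaf stage (2 to 18 cm tall), grown in pots of peat moss/vermiculite medium with wetting agent and starter nutrients, received postemergence applications of test chemicals. After 13 to 15 days in a greenhouse, injury was rated visually against untreated controls on a 0 (no effect) to 100 (complete control) scale.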

[6] = tested on: large crabgrass (Digitaria sanguinalis); assay: Test A pre-/postemergence plant response
Outline: (§2)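 Greenhouse pots of loam/sand received directed preemergence soil sprays or postemergence sprays (plants 2–10 cm, 1–2 leaf stage), compounds formulated in non-phytotoxic solvent with surfactant. Injury was rated visually versus untreated controls after about ten days on a 0 (no effect) to 100 (complete control) scale.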

[7] = tested on: barnyardgrass (Echinochloa crus-galli); assay: Test A pre-/postemergence plant response
Outline: as §2

[8] = tested on: corn (Zea mays); assay: Test A pre-/postemergence plant response
Outline: as §2

[9] = tested on: morningglory (Ipomoea spp.); assay: Test A pre-/postemergence plant response
Outline: as §2

[10] = tested on: giant foxtail (Setaria faberii); assay: Test A pre-/postemergence plant response
Outline: as §2

[11] = tested on: velvetleaf (Abutilon theophrasti); assay: Test A pre-/postemergence plant response
Outline: as §2

[12] = tested on: pigweed (Amaranthus retroflexus); assay: Test A pre-/postemergence plant response
Outline: as §2

[13] = tested on: wheat (Triticum aestivum); assay: Test A pre-/postemergence plant response
Outline: as §2

[14] = 31 g ai/ha, scale of 0 to 100 where 0 is no effect and 100 is complete control
[15] = 62 g ai/ha, scale of 0 to 100 where 0 is no effect and 100 is complete control
[16] = 125 g ai/ha, scale 0 to 100, 0 is no effect, 100 is complete control
[17] = 31 g ai/ha, postemergence, scale 0 to 100, 0 is no effect, 100 is complete control
[18] = Postemergence, 62 g ai/ha, scale 0 (no effect) to 100 (complete control), 13 to 15 days
[19] = Postemergence, 125 g ai/ha, visual rating after 13 to 15 days, scale 0 (no effect) to 100 (complete control)
[20] = Postemergence, 250 g ai/ha, scale 0 to 100 (0 no effect, 100 complete control)
[21] = Postemergence, 125 g ai/ha, visual injury, 0 to 100 scale (0 no effect, 100 complete control), approx. ten days
[22] = Postemergence, 500 g ai/ha, 0 to 100 scale, 0 = no effect, 100 = complete control, approx. ten days
[23] = Preemergence, 125 g ai/ha, 0 to 100 scale, 0 = no effect, 100 = complete control
[24] = Preemergence, 500 g ai/ha, visual injury, 0 to 100 scale (0 no effect, 100 complete control), approx. ten days

Cc1cccc(-n2c(-c3ccccc3)ncc(C(=O)C3=C(O)CCCC3=O)c2=O)c1F [Compound 58]
90: Plant response rating, Crabgrass, Large [6, 22] | Plant response rating, Crabgrass, Large [6, 24] | Plant response rating, Barnyardgrass [7, 22] | Plant response rating, Barnyardgrass [7, 24] | Plant response rating, Foxtail, Giant [10, 22]
80: Crabgrass, Large plant response rating [6, 21] | Morningglory plant response rating [9, 21] | Plant response rating, Foxtail, Giant [10, 24]
20: Plant response rating, Corn [8, 22]
60: Plant response rating, Windgrass [5, 19]
0: Plant response rating, Flood, Rice [1] | Plant response rating, Rice [1, 14] | Plant response rating, Rice [1, 15] | Plant response rating, Rice [1, 16] | Plant response rating, Flood, Barnyardgrass [2] | Plant response rating, Barnyardgrass [2, 14] | Plant response rating, Barnyardgrass [2, 15] | Plant response rating, Barnyardgrass [2, 16] | Plant response rating, Flood, Ducksalad [3] | Plant response rating, Ducksalad [3, 14] | Plant response rating, Ducksalad [3, 15] | Plant response rating, Ducksalad [3, 16] | Plant response rating, Flood, Sedge, Umbrella [4] | Plant response rating, Sedge, Umbrella [4, 14] | Plant response rating, Sedge, Umbrella [4, 15] | Plant response rating, Sedge, Umbrella [4, 16] | Corn plant response rating [8, 21] | Plant response rating, Corn [8, 23] | Plant response rating, Corn [8, 24] | Wheat plant response rating [13, 21] | Plant response rating, Wheat [13, 22] | Plant response rating, Wheat [13, 23] | Plant response rating, Wheat [13, 24]
100: Plant response rating, Morningglory [9, 22] | Plant response rating, Morningglory [9, 24] | Velvetleaf plant response rating [11, 21] | Plant response rating, Velvetleaf [11, 22] | Plant response rating, Velvetleaf [11, 24] | Pigweed plant response rating [12, 21] | Plant response rating, Pigweed [12, 22] | Plant response rating, Pigweed [12, 24]
50: Plant response rating, Windgrass [5, 18] | Barnyardgrass plant response rating [7, 21] | Plant response rating, Foxtail, Giant [10, 23]
70: Plant response rating, Windgrass [5, 20] | Plant response rating, Crabgrass, Large [6, 23] | Foxtail, Giant plant response rating [10, 21] | Plant response rating, Velvetleaf [11, 23] | Plant response rating, Pigweed [12, 23]
35: Plant response rating, Windgrass [5, 17]
30: Plant response rating, Barnyardgrass [7, 23]

CCCCc1ncc(C(=O)C2=C(O)CCCC2=O)c(=O)n1-c1ccccc1C [Compound 62]
50: Plant response rating, Windgrass [5, 20]
70: Crabgrass, Large plant response rating [6, 21] | Plant response rating, Corn [8, 22] | Foxtail, Giant plant response rating [10, 21] | Plant response rating, Foxtail, Giant [10, 24] | Plant response rating, Velvetleaf [11, 23]
60: Plant response rating, Crabgrass, Large [6, 23] | Plant response rating, Foxtail, Giant [10, 23]
0: Plant response rating, Flood, Rice [1] | Plant response rating, Rice [1, 14] | Plant response rating, Rice [1, 15] | Plant response rating, Rice [1, 16] | Plant response rating, Flood, Barnyardgrass [2] | Plant response rating, Barnyardgrass [2, 14] | Plant response rating, Barnyardgrass [2, 15] | Plant response rating, Barnyardgrass [2, 16] | Plant response rating, Ducksalad [3, 14] | Plant response rating, Ducksalad [3, 15] | Plant response rating, Ducksalad [3, 16] | Plant response rating, Flood, Sedge, Umbrella [4] | Plant response rating, Sedge, Umbrella [4, 14] | Plant response rating, Sedge, Umbrella [4, 15] | Plant response rating, Sedge, Umbrella [4, 16] | Plant response rating, Corn [8, 23] | Wheat plant response rating [13, 21] | Plant response rating, Wheat [13, 23]
30: Plant response rating, Flood, Ducksalad [3] | Plant response rating, Windgrass [5, 17] | Corn plant response rating [8, 21]
20: Plant response rating, Corn [8, 24] | Plant response rating, Wheat [13, 22]
35: Plant response rating, Windgrass [5, 18] | Plant response rating, Windgrass [5, 19]
90: Plant response rating, Crabgrass, Large [6, 22] | Plant response rating, Crabgrass, Large [6, 24] | Plant response rating, Barnyardgrass [7, 22] | Plant response rating, Barnyardgrass [7, 24] | Plant response rating, Morningglory [9, 23] | Plant response rating, Foxtail, Giant [10, 22] | Plant response rating, Velvetleaf [11, 24] | Pigweed plant response rating [12, 21]
10: Plant response rating, Barnyardgrass [7, 23] | Plant response rating, Wheat [13, 24]
80: Barnyardgrass plant response rating [7, 21] | Plant response rating, Pigweed [12, 23]
100: Morningglory plant response rating [9, 21] | Plant response rating, Morningglory [9, 22] | Plant response rating, Morningglory [9, 24] | Velvetleaf plant response rating [11, 21] | Plant response rating, Velvetleaf [11, 22] | Plant response rating, Pigweed [12, 22] | Plant response rating, Pigweed [12, 24]
